Assay results from ChEMBL document CHEMBL4765432, “Design and synthesis of novel Flavone-based histone deacetylase inhibitors antagonizing activation of STAT3 in breast cancer” (Eur J Med Chem, 2020).
Activity calls are given as the source filed them. The rule behind the calls is not given here.

Legend:
[1] = Oral bioavailability in Sprague-Dawley rat at 20 mg/kg measured upto 12 hrs by LC-MS/MS analysis; type: ADME, organism-based; settings: in vivo
MDA-MB-231 [2] = assay: Induction of apoptosis in human MDA-MB-231 cells assessed as necrotic cells at 1 uM incubated for 72 hrs by annexinV-FITC and PI staining based flow cytometry analysis (reference value: 0.330 %); type: functional
Histone deacetylase 1 = Histone deacetylase 1 (Homo sapiens, UniProt Q13547); assay: Inhibition of recombinant human C-terminal GST-tagged full length HDAC-1 expressed in baculovirus infected in Sf9 cells using Boc-Lys (q-Ac)-AMC as substrate incubated for 10 mins followed by substrate addition and measured after 30 mins by fluorescence based assay
[3] = Genotoxicity in Salmonella typhimurium TA1537 by Ames test; type: toxicity; settings: salmonella enterica subsp. enterica serovar typhimurium
4T1 [4] = assay: Induction of apoptosis in mouse 4T1 cells assessed as late apoptotic cells at 2.5 uM incubated for 72 hrs by annexinV-FITC and PI staining based flow cytometry analysis (reference value: 2.24 %); type: functional
MDA-MB-231 [5] = assay: Induction of cell cycle arrest in human MDA-MB-231 cells assessed as increase in p21 expression at 0.25 to 5 uM incubated for 24 hrs by Western blot analysis; type: functional, cell-based; settings: dose 0.25-5 µM
Histone deacetylase 2 = Histone deacetylase 2 (Homo sapiens, UniProt Q92769); assay: Inhibition of recombinant human C-terminal GST-tagged full length HDAC-2 expressed in baculovirus infected in Sf9 cells using Boc-Lys (q-Ac)-AMC as substrate incubated for 10 mins followed by substrate addition and measured after 30 mins by fluorescence based assay
[6] = Genotoxicity in Salmonella typhimurium WP2 uvrA (pKM 101) by Ames test; type: toxicity; settings: salmonella enterica subsp. enterica serovar typhimurium
Histone deacetylase 4 = Histone deacetylase 4 (Homo sapiens, UniProt P56524); assay: Inhibition of recombinant human N-terminal GST-tagged HDAC-4 (612 to end residues) expressed in baculovirus infected in Sf9 cells using Boc-Lys (q-Ac)-AMC as substrate incubated for 10 mins followed by substrate addition and measured after 30 mins by fluorescence based assay
4T1 [7] = assay: Induction of cell cycle arrest in mouse 4T1 cells assessed as G0/G1 phase accumulation at 1 uM incubated for 24 hrs by PI staining based flow cytometry analysis (reference value: 42.06 %); type: functional
MDA-MB-231 [8] = assay: Induction of cell cycle arrest in human MDA-MB-231 cells assessed as G0/G1 phase accumulation at 2 uM incubated for 24 hrs by PI staining based flow cytometry analysis (reference value: 29.10 %); type: functional
[9] = Toxicity in C57BL/6 mouse assessed death of organism at 50 mg/kg, po observed for 20 days; type: organism-based; settings: in vivo, 480 h, time 20 day
MCF7 = assay: Cytotoxicity against human MCF7 cells assessed as reduction in cell viability incubated for 48 hrs by MTT assay; type: functional, cell-based; settings: MCF7, 48 h
[10] = Toxicity in C57BL/6 mouse assessed death of organism at 300 mg/kg, ip observed for 24 hrs; type: organism-based; settings: in vivo
T47D = assay: Cytotoxicity against human T47D cells assessed as reduction in cell viability incubated for 48 hrs by MTT assay; type: functional, cell-based
Histone deacetylase 8 = Histone deacetylase 8 (Homo sapiens, UniProt Q9BY41); assay: Inhibition of recombinant human N-terminal GST-tagged full length HDAC-8 expressed in baculovirus infected in Sf9 cells using Boc-Lys (q-Ac)-AMC as substrate incubated for 10 mins followed by substrate addition and measured after 30 mins by fluorescence based assay
SUM-159-PT = assay: Cytotoxicity against human SUM159PT cells assessed as reduction in cell viability incubated for 48 hrs by MTT assay; type: functional, cell-based
[11] = MRT in Sprague-Dawley rat at 20 mg/kg, po measured upto 12 hrs by LC-MS/MS analysis; type: ADME, organism-based; settings: in vivo
SMMC-7721 = assay: Cytotoxicity against human SMMC-7721 cells assessed as reduction in cell viability incubated for 48 hrs by MTT assay; type: functional, cell-based; settings: SMMC-7721, 48 h
MDA-MB-231 [12] = assay: Induction of apoptosis in human MDA-MB-231 cells assessed as decrease in Bcl-2 expression incubated for 48 hrs by Western blot analysis; type: functional, cell-based; settings: dose 0.5-10 µM
[13] = biological target: Voltage-gated inwardly rectifying potassium channel KCNH2 (Homo sapiens, UniProt Q12809); assay: Inhibition of human ERG
NCI-H1581 = assay: Cytotoxicity against human NCI-1581 cells assessed as reduction in cell viability incubated for 48 hrs by MTT assay; type: functional, cell-based; settings: NCI-H1581, 48 h
Bel-7402 = assay: Cytotoxicity against human Bel-7402 cells assessed as reduction in cell viability incubated for 48 hrs by MTT assay; type: functional, cell-based; settings: Bel-7402, 48 h
[14] = biological target: Polyamine deacetylase HDAC10 (Homo sapiens, UniProt Q969S8); assay: Inhibition of recombinant human N-terminal GST-tagged HDAC-10 (1 to 482 residues) expressed in baculovirus infected in Sf9 cells using Boc-Lys (q-Ac)-AMC as substrate incubated for 10 mins followed by substrate addition and measured after 30 mins by fluorescence based assay
Histone deacetylase 11 = Histone deacetylase 11 (Homo sapiens, UniProt Q96DB2); assay: Inhibition of recombinant human N-terminal GST-tagged full length HDAC-11 expressed in baculovirus infected in Sf9 cells using Boc-Lys (q-Ac)-AMC as substrate incubated for 10 mins followed by substrate addition and measured after 30 mins by fluorescence based assay
4T1 [15] = assay: Induction of apoptosis in mouse 4T1 cells assessed as viable cells at 1 uM incubated for 72 hrs by annexinV-FITC and PI staining based flow cytometry analysis (reference value: 91.1 %); type: functional; settings: read-out: Activity
BT-549 [16] = assay: Cytotoxicity against human BT-549 cells assessed as reduction in cell viability incubated for 48 hrs by MTT assay; type: functional, cell-based; settings: BT-549, 48 h
[17] = Genotoxicity in Salmonella typhimurium TA98 by Ames test; type: toxicity; settings: salmonella enterica subsp. enterica serovar typhimurium
[18] = Genotoxicity in Salmonella typhimurium TA100 by Ames test; type: toxicity; settings: salmonella enterica subsp. enterica serovar typhimurium
MDA-MB-231 [19] = assay: Induction of apoptosis in human MDA-MB-231 cells assessed as early apoptotic cells at 2.5 uM incubated for 72 hrs by annexinV-FITC and PI staining based flow cytometry analysis (reference value: 5.57 %); type: functional
BT-549 [20] = assay: Potency index, ratio of IC50 of SAHA to IC50 of compound for cytotoxicity against human BT-549 cells assessed as reduction in cell viability incubated for 48 hrs by MTT assay; type: functional
[21] = Cmax in Sprague-Dawley rat at 20 mg/kg, po measured upto 12 hrs by LC-MS/MS analysis; type: ADME, organism-based; parameters: route oral, dose 20 mg/kg, time <=12; settings: in vivo
4T1 [22] = assay: Induction of cell cycle arrest in mouse 4T1 cells assessed as G2/M phase accumulation at 1 uM incubated for 24 hrs by PI staining based flow cytometry analysis (reference value: 38.51 %); type: functional
4T1 [23] = assay: Induction of apoptosis in mouse 4T1 cells assessed as early apoptotic cells at 1 uM incubated for 72 hrs by annexinV-FITC and PI staining based flow cytometry analysis (reference value: 1.65 %); type: functional
MDA-MB-231 [24] = assay: Antitumor activity against human MDA-MB-231 cells xenografted in BALB/c mouse assessed as tumor growth inhibition at 25 mg/kg, ip administered for 34 days and measured on day 34; type: functional, organism-based; settings: time 34.0 day

Histone deacetylase 8, sequence (Q9BY41 whole entry): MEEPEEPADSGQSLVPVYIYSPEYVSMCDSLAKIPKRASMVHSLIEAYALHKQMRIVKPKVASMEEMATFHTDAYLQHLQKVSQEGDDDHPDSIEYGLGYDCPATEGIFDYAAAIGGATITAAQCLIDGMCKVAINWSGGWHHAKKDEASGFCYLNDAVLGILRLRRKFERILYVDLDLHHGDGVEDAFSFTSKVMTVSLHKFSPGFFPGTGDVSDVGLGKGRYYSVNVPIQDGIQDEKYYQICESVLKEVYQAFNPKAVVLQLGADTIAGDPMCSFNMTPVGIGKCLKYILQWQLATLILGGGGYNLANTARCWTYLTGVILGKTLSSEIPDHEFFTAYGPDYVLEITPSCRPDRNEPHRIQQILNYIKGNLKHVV
Histone deacetylase 4, sequence (P56524 whole entry): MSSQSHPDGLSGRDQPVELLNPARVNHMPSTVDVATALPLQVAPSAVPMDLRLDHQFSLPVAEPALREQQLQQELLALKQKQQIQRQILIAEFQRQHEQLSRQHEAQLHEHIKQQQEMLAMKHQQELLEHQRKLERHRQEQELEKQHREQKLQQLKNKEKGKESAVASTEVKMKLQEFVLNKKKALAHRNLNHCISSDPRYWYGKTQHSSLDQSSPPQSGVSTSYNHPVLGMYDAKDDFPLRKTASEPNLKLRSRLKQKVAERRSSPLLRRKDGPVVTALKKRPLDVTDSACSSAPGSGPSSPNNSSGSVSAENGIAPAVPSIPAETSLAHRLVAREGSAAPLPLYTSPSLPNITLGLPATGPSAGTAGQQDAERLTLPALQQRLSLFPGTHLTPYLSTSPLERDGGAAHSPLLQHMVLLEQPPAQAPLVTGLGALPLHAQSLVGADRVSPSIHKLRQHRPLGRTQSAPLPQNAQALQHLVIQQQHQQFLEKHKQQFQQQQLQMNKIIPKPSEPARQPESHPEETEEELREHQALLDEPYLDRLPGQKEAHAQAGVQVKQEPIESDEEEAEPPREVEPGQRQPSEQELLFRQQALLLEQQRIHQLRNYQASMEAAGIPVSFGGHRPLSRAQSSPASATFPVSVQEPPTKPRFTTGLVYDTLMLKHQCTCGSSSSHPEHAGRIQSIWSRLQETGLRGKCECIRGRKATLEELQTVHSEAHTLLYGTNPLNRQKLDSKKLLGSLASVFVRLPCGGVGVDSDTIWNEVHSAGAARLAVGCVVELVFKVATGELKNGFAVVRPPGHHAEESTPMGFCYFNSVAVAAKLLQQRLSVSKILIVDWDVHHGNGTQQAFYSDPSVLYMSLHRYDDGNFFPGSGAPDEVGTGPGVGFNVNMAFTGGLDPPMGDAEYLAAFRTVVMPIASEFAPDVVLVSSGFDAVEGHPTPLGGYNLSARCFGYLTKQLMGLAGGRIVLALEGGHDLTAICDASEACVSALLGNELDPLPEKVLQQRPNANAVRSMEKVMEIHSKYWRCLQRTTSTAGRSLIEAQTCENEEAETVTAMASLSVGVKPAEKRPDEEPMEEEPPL
Polyamine deacetylase HDAC10, sequence (Q969S8 whole entry, the tested form may be a part): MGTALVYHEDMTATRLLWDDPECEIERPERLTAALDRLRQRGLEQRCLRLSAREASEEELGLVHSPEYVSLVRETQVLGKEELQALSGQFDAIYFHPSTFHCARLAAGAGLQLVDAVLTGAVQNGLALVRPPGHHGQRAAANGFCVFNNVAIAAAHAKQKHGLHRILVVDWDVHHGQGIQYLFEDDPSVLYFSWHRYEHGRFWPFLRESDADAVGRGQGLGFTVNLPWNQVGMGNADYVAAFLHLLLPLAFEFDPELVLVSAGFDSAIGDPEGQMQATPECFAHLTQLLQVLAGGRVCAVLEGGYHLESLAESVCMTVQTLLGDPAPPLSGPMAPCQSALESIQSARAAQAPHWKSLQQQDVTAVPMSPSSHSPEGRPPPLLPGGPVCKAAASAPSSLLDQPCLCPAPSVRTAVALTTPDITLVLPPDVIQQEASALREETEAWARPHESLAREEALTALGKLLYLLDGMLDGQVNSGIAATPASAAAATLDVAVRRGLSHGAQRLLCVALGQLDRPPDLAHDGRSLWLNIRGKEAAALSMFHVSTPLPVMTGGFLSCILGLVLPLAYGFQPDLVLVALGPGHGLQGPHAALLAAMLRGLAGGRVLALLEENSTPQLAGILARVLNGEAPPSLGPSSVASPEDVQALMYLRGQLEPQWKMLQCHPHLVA
Histone deacetylase 11, sequence (Q96DB2 whole entry): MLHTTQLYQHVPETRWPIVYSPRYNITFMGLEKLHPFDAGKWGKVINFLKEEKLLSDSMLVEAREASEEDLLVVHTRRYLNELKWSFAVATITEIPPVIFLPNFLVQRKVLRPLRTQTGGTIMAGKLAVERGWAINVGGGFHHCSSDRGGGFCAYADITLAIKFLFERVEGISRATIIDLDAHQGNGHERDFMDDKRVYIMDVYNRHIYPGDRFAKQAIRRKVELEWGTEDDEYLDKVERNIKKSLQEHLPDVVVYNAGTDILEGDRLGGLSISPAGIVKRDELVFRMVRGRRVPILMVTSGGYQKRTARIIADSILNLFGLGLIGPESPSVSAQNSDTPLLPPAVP
Histone deacetylase 1, sequence (Q13547 whole entry): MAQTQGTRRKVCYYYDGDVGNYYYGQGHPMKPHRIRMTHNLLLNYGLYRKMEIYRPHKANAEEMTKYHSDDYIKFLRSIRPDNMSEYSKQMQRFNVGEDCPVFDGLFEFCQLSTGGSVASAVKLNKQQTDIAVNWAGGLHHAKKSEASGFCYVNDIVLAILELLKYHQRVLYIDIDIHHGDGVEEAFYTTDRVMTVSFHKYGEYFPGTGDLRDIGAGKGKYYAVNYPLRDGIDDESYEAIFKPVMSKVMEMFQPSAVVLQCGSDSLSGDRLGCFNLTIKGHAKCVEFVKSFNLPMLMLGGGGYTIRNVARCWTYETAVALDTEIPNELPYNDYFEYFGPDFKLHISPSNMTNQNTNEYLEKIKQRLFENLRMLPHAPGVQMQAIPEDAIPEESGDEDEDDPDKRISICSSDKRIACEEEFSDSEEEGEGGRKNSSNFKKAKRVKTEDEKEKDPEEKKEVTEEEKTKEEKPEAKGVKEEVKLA
Voltage-gated inwardly rectifying potassium channel KCNH2, sequence (Q12809 whole entry): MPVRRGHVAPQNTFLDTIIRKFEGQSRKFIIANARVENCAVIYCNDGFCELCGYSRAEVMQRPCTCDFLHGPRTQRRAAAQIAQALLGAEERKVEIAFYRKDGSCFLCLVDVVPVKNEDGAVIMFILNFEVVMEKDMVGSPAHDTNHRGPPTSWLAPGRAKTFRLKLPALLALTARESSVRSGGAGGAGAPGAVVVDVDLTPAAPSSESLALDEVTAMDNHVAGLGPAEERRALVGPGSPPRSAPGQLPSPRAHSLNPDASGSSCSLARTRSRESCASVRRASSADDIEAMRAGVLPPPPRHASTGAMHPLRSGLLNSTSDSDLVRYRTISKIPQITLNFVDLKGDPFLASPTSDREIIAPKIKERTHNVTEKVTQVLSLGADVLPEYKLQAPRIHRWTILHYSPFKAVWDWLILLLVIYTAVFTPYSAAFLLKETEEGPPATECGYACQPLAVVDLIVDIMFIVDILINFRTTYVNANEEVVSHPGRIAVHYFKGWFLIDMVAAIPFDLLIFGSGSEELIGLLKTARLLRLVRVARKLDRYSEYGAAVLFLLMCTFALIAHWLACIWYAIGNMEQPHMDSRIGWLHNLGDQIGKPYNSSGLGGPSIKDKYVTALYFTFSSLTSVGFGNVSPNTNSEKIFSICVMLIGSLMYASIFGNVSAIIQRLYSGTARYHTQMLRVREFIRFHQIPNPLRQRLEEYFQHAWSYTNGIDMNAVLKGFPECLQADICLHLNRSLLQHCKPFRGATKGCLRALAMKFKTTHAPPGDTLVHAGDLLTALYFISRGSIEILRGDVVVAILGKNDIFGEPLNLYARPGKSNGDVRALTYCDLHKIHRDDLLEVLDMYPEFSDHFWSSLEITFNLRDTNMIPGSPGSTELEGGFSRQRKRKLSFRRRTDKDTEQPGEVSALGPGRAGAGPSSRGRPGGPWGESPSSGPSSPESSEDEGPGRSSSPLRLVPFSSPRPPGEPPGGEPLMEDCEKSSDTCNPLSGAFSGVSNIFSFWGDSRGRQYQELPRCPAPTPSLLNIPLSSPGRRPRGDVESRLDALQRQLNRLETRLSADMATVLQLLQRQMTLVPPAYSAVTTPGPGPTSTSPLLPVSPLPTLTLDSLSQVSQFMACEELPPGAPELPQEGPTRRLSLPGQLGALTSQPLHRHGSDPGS
Histone deacetylase 2, sequence (Q92769 whole entry): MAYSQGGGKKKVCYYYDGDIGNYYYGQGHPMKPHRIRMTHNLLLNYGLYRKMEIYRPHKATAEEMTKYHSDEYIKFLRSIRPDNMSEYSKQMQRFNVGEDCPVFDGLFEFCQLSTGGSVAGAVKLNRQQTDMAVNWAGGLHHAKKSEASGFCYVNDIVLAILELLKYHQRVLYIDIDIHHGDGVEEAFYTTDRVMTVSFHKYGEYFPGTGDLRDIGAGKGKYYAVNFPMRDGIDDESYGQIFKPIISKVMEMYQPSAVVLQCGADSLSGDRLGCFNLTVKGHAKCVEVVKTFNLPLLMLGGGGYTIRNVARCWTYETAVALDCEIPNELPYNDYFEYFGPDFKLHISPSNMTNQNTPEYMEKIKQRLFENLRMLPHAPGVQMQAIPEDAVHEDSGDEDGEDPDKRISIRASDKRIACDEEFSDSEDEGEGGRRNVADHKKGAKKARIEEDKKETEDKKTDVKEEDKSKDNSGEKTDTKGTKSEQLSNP

Molecule `CN(C)CCOc1ccc(-c2cc(=O)c3c(O)cc(OCCCCCC(=O)NO)cc3o2)cc1.Cl` has a bioavailability [1] of 57.8%, an Activity (MDA-MB-231 [2]) of 0.13% and an IC50 (Histone deacetylase 1) of 36 nM. The Activity [3] was “Non-Toxic”, the Activity (4T1 [4]) was 33.9% and the Activity (MDA-MB-231 [5]) was “Active”. The IC50 (Histone deacetylase 2) was 58.5 nM, the Activity [6] was “Non-Toxic” and the IC50 (Histone deacetylase 4) was 307 nM. For the same molecule, the Activity (4T1 [7]) was 49.62%, the Activity (MDA-MB-231 [8]) was 61.9% and the Activity [9] was “Non-Toxic”. The IC50 (MCF7) was 4700 nM, the Activity [10] was “Non-Toxic” and the IC50 (T47D) was 1530 nM. It also gave an IC50 (Histone deacetylase 8) of 2500 nM, an IC50 (SUM-159-PT) of 277 nM and an MRT [11] of 1.1 h. For the same molecule, the IC50 (SMMC-7721) was 530 nM, the Activity (MDA-MB-231 [12]) was “Dose-dependent effect” and the IC50 [13] was 1200 nM. For the same molecule, the IC50 (NCI-H1581) was 2320 nM, the IC50 (Bel-7402) was 3310 nM and the IC50 [14] was 247 nM. It also gave an IC50 (Histone deacetylase 11) of 179 nM, a viability at 1 µM (4T1 [15]) of 72.3% and an IC50 (BT-549 [16]) of 4130 nM. For the same molecule, the Activity [17] was “Toxic”, the Activity [18] was “Toxic” and the Activity (MDA-MB-231 [19]) was 50.1%. The “Ratio IC50” value (BT-549 [20]) was 2, the Cmax [21] was 1280 ng/mL and the Activity (4T1 [22]) was 19.39%. For the same molecule, the Activity (4T1 [23]) was 15.5% and the TGI (MDA-MB-231 [24]) was “Active”.
